The compounds below were run against T1, H+/K+-ATPase (Sus scrofa, UniProt P19156) (assay: Inhibition of proton pump (H+/K+-ATPase) activity in hog gastric vesicles). Settings: K+ specific H+/K+-ATPase activity, pH 7.4, 37° C. for 40 minutes, malachite green.
T1 construct: reaction buffer solution (60 mmol/l Tris-HCl buffer solution, pH 7.4) containing hog gastric vesicle; from tissue; host or cells: hog stomach (gastric vesicles, by centrifugation after Rabon et al. 1988)
T1 sequence (P19156 2-1034 limits assumed): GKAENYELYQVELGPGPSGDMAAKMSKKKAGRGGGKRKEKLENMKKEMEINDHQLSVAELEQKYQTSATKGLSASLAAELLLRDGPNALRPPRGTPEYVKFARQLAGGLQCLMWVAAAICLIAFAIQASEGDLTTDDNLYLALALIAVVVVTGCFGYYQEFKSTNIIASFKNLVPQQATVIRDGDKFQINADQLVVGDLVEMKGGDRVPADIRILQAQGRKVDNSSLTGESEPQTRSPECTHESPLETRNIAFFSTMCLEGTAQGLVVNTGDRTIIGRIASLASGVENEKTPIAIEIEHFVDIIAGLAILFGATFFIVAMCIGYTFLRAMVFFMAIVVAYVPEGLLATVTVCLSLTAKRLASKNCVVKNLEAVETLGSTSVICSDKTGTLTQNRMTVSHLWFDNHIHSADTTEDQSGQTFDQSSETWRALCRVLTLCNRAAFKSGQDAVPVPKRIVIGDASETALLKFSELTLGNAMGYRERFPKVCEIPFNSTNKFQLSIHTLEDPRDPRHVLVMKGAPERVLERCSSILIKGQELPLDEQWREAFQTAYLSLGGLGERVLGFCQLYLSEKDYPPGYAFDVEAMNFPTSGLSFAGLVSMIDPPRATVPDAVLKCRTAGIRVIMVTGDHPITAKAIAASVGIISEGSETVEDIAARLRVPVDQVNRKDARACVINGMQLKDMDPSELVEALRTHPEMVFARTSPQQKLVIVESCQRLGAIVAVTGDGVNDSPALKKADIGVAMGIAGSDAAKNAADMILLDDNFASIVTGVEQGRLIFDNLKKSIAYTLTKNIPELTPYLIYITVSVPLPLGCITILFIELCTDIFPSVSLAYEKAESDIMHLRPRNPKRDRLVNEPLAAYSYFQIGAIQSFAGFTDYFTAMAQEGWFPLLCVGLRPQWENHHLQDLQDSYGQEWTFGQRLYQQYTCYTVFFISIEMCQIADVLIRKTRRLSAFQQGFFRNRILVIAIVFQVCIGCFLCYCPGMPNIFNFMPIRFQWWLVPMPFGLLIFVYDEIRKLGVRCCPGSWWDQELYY
T1 sequence (P18434 whole entry partner): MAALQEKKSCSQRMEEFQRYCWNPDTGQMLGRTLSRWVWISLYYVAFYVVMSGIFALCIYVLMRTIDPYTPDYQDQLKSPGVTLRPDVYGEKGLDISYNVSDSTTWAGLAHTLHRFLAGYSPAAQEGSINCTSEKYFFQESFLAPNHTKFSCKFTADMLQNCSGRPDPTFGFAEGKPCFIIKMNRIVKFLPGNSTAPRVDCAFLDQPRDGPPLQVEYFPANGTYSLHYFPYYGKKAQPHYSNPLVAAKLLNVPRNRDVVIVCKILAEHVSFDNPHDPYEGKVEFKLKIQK
Type: biochemical
Description: 1) Preparation of Gastric Vesicles
Gastric vesicles were prepared from hog stomach by centrifugation (Edd C. Rabon et al., Preparation of Gastric H^+,K^+-ATPase, Methods in enzymology, vol. 157 Academic Press Inc., (1988), pp. 649-654). The protein contents of the prepared gastric vesicles were quantified with a Bicinchoninic Acid (BCA) kit.
2) Measurement of Effect of Inhibiting Proton Pump (H^+/K^+-ATPase) Activity
The effect of inhibiting proton pump activity by the compound of the present invention was measured in a 96-well plate. In this experiment, K^+ specific H^+/K^+-ATPase activity was calculated based on the difference between H^+/K^+-ATPase activity in the presence of K^+ ions and H^+/K^+-ATPase activity in the absence of K^+ ions. In the 96-well plate, to negative and positive control groups, 0.5% dimethylsulfoxide (DMSO) in buffer was added, and to the test groups, the compound of the present invention was added. All the analyses were conducted at room temperature with the reaction volume of 100 μl. To a reaction buffer solution (60 mmol/l Tris-HCl buffer solution, pH 7.4) containing hog gastric vesicle, DMSO and each concentration of compound were added, and then, 10 μl of a 10 mmol/l adenosine triphosphate tris buffer solution (60 mmol/l Tris-HCl buffer solution, pH 7.4) was added to initiate an enzyme reaction. The enzyme reaction was conducted at 37° C. for 40 minutes, 50 μl of a malachite green solution (0.12% malachite green solution, 5.8% ammonium molybdate and 11% tween 20 were mixed at a ratio of 100:67:2 in 6.2 N sulfuric acid) was added to stop the reaction, and 50 μl of 15.1% sodium citrate was added. During the reaction, the amount of monophosphate (Pi) was measured at 570 nm using micro plate reader (FLUOstar Omega, BMG Company). Inhibition rate (%) was measured from the activity values of the control groups and the activity values of various concentrations of the test compound, and IC50 of the test compound was calculated from each % inhibition value of the compound using Logistic 4-parameter function of Sigmaplot 8.0 program.
In the case of `CNC1CCc2c1cn(S(=O)(=O)c1cccc(OC)c1)c2-c1cc(Cl)ccc1Cl` (stereo not shown) [Example 55, 1-(2,5-dichlorophenyl)-2-((3-methoxyphenyl)sulfonyl)-N-methyl-2,4,5,6-tetrahydrocyclopenta[c]pyrrol-4-amine], the IC50 is reported as 590 nM. `CNC1CCc2c1cn(S(=O)(=O)c1ccc(C#N)cc1Cl)c2-c1ccccc1F` (stereo not shown) [Example 67, 3-chloro-4-((1-(2-fluorophenyl)-4-(methylamino)-5,6-dihydrocyclopenta[c]pyrrol-2(4H)-yl)sulfonyl)benzonitrile] showed an IC50 of 1260 nM. Compound `Cc1oc(=O)oc1CN(C)C1CCc2c1cn(S(=O)(=O)c1cccc(F)c1)c2-c1ccc(F)cc1F` (stereo not shown) [Example 117, 4-(((1-(2,4-difluorophenyl)-2-((3-fluorophenyl)sulfonyl)-2,4,5,6-tetrahydrocyclopenta[c]pyrrol-4-yl)(methyl)amino)methyl)-5-methyl-1,3-dioxol-2-one] has an IC50 of 2440 nM. For `CNC1CCc2c1cn(S(=O)(=O)c1ccc(C)cc1)c2-c1ccccc1F` (stereo not shown) [Example 59, 1-(2-fluorophenyl)-N-methyl-2-tosyl-2,4,5,6-tetrahydrocyclopenta[c]pyrrol-4-amine], the IC50 was 1000 nM. `CN(C)C1CCCc2c1cn(S(=O)(=O)c1cccc(OC(F)F)c1)c2-c1ccccc1F` (stereo not shown) [Example 142, 2-((3-(difluoromethoxy)phenyl)sulfonyl)-1-(2-fluorophenyl)-N,N-dimethyl-4,5,6,7-tetrahydro-2H-isoindole-4-amine] gave an IC50 of 8000 nM. Compound `CNC1CCc2c1cn(S(=O)(=O)c1cccc(Cl)c1)c2-c1ccc(C(=O)OC)cc1` (stereo not shown) [Example 15, methyl 4-(2-((3-chlorophenyl)sulfonyl)-4-(methylamino)-2,4,5,6-tetrahydrocyclopenta[c]pyrrol-1-yl)benzoate] has an IC50 of 2900 nM. In the case of `CNC1CCc2c1cn(S(=O)(=O)c1ccc(C(F)(F)F)cc1Cl)c2-c1ccccc1F` (stereo not shown) [Example 69, 2-((2-chloro-4-(trifluoromethyl)phenyl)sulfonyl)-1-(2-fluorophenyl)-N-methyl-2,4,5,6-tetrahydrocyclopenta[c]pyrrol-4-amine], the IC50 is reported as 1620 nM. For `CNC1CCCc2c1cn(S(=O)(=O)c1cccc(Cl)c1)c2-c1ccncc1` (stereo not shown) [Example 128, 2-((3-chlorophenyl)sulfonyl)-N-methyl-1-(pyridin-4-yl)-4,5,6,7-tetrahydro-2H-isoindole-4-amine], the IC50 was 50000 nM. `CNC1CCCc2c1cn(S(=O)(=O)c1cccnc1)c2-c1ccc(-c2ccccc2)cc1` (stereo not shown) [Example 134, 1-([1,1′-biphenyl]-4-yl)-N-methyl-2-(pyridin-3-ylsulfonyl)-4,5,6,7-tetrahydro-2H-isoindole-4-amine] was tested, and the IC50 was 19700 nM. With `CNC1CCc2c1cn(S(=O)(=O)c1cccc(Cl)c1C)c2-c1ccccc1F` (stereo not shown) [Example 63, 2-((3-chloro-2-methylphenyl)sulfonyl)-1-(2-fluorophenyl)-N-methyl-2,4,5,6-tetrahydrocyclopenta[c]pyrrol-4-amine] the IC50 was 610 nM. For `CNC1CCCc2c1cn(S(=O)(=O)c1cccc(N(C)C)c1)c2-c1ccccc1F` (stereo not shown) [Example 130, 2-((3-(dimethylamino)phenyl)sulfonyl)-1-(2-fluorophenyl)-N-methyl-4,5,6,7-tetrahydro-2H-isoindole-4-amine], the IC50 was 1500 nM. `CNC1CCc2c1cn(S(=O)(=O)c1cc(Cl)ccc1Cl)c2-c1ccc(C)cc1F` (stereo not shown) [Example 72, 2-((2,5-dichlorophenyl)sulfonyl)-1-(2-fluoro-4-methylphenyl)-N-methyl-2,4,5,6-tetrahydrocyclopenta[c]pyrrol-4-amine] gave an IC50 of 480 nM. Compound `CNC1CCc2c1cn(S(=O)(=O)c1cc(Cl)c(Cl)cc1Cl)c2-c1ccccc1` (stereo not shown) [Example 81, N-methyl-1-phenyl-2-((2,4,5-trichlorophenyl)sulfonyl)-2,4,5,6-tetrahydrocyclopenta[c]pyrrol-4-amine] has an IC50 of 1140 nM. With `CNC1CCc2c1cn(S(=O)(=O)c1ccc(F)cc1Cl)c2-c1ccccc1F` (stereo not shown) [Example 66, 2-((2-chloro-4-fluorophenyl)sulfonyl)-1-(2-fluorophenyl)-N-methyl-2,4,5,6-tetrahydrocyclopenta[c]pyrrol-4-amine] the IC50 was 500 nM. Compound `CNC1CCc2c1cn(S(=O)(=O)c1cccc(C)c1)c2-c1ccc(C)cc1F` (stereo not shown) [Example 52, 1-(2-fluoro-4-methylphenyl)-N-methyl-2-(m-tolylsulfonyl)-2,4,5,6-tetrahydrocyclopenta[c]pyrrol-4-amine] has an IC50 of 350 nM. Work on `CNC1CCc2c1cn(S(=O)(=O)c1cccc(F)c1)c2-c1cc(Cl)ccc1Cl` (stereo not shown) [Example 51, 1-(2,5-dichlorophenyl)-2-((3-fluorophenyl)sulfonyl)-N-methyl-2,4,5,6-tetrahydrocyclopenta[c]pyrrol-4-amine] yielded an IC50 of 650 nM. For `Cc1oc(=O)oc1COC(=O)N(C)C1CCc2c1cn(S(=O)(=O)c1cccc(Cl)c1)c2-c1ccccc1F` (stereo not shown) [Example 118, (5-methyl-2-oxo-1,3-dioxol-4-yl)methyl (2-((3-chlorophenyl)sulfonyl)-1-(2-fluorophenyl)-2,4,5,6-tetrahydrocyclopenta[c]pyrrol-4-yl)(methyl)carbamate], the IC50 was 40000 nM. `CNC1CCc2c1cn(Cc1cccc(OC)c1)c2-c1ccccc1F` (stereo not shown) [Example 111, 1-(2-fluorophenyl)-2-(3-methoxybenzyl)-N-methyl-2,4,5,6-tetrahydrocyclopenta[c]pyrrol-4-amine] was tested, and the IC50 was 2570 nM. `CNC1CCCc2c1cn(S(=O)(=O)c1cccc(F)c1)c2-c1ccccc1F` (stereo not shown) [Example 120, 1-(2-fluorophenyl)-2-((3-fluorophenyl)sulfonyl)-N-methyl-4,5,6,7-tetrahydro-2H-isoindole-4-amine] was tested, and the IC50 was 1500 nM. Work on `CNC1CCc2c1cn(S(=O)(=O)c1cccc(Cl)c1)c2-c1ccc2c(c1)OCO2` (stereo not shown) [Example 28, 1-(benzo[d][1,3]dioxol-5-yl)-2-((3-chlorophenyl)sulfonyl)-N-methyl-2,4,5,6-tetrahydrocyclopenta[c]pyrrol-4-amine] yielded an IC50 of 590 nM. `CNC1CCc2c1cn(S(=O)(=O)c1ccc(Cl)c(Cl)c1)c2-c1ccccc1F` (stereo not shown) [Example 76, 2-((3,4-dichlorophenyl)sulfonyl)-1-(2-fluorophenyl)-N-methyl-2,4,5,6-tetrahydrocyclopenta[c]pyrrol-4-amine] was tested, and the IC50 was 490 nM. `CNC1CCc2c1cn(S(=O)(=O)c1ccc(F)cc1)c2-c1cc(Cl)ccc1Cl` (stereo not shown) [Example 61, 1-(2,5-dichlorophenyl)-2-((4-fluorophenyl)sulfonyl)-N-methyl-2,4,5,6-tetrahydrocyclopenta[c]pyrrol-4-amine] showed an IC50 of 770 nM. With `CNC1CCCc2c1cn(S(=O)(=O)c1cccnc1)c2-c1ccccc1Cl` (stereo not shown) [Example 133, 1-(2-chlorophenyl)-N-methyl-2-(pyridin-3-ylsulfonyl)-4,5,6,7-tetrahydro-2H-isoindole-4-amine] the IC50 was 2000 nM. Compound `CNC1CCc2c1cn(S(=O)(=O)c1cc(Cl)ccc1Cl)c2-c1ccc(F)cc1F` (stereo not shown) [Example 71, 2-((2,5-dichlorophenyl)sulfonyl)-1-(2,4-difluorophenyl)-N-methyl-2,4,5,6-tetrahydrocyclopenta[c]pyrrol-4-amine] has an IC50 of 670 nM. `CNC1CCCc2c1cn(S(=O)(=O)c1cccc(C)c1)c2-c1ccccc1F` (stereo not shown) [Example 121, 1-(2-fluorophenyl)-N-methyl-2-(m-tolylsulfonyl)-4,5,6,7-tetrahydro-2H-isoindole-4-amine] was tested, and the IC50 was 1500 nM.

Source: US10039747B2, “Tetrahydrocyclopentapyrrole derivatives and a method for preparing the same” (Daewoong Pharmaceutical Co., Ltd., priority 2013, dated 2018)
